“Also recorded” adds a separate entry of the source.
Experiments:
OX2R [1] = assay: OX2R binding affinity; conditions: for selectivity over OX1R: OX2R over OX1R; for selectivity (OX2R/OX1R): ratio of Ki OX1 to Ki OX2
[2] = In vitro tracer stability in saline; format: physicochemical; conditions: over the studied time intervals
Experimental: (§1) [^18F]1 and [^18F]2 were obtained in 24% and 53% decay-corrected radiochemical yields (RCYs) with molar activities of 53 GBq/μmol and 38 GBq/μmol, respectively. […] Furthermore, in vitro stability tests of [^18F]1 and [^18F]2 were conducted in saline, serums, and liver microsomes across species.

[3] = In vitro tracer stability in serum; format: in vitro ADME; conditions: mouse, rat, nonhuman primate and human serum
Experimental: as §1

[4] = In vitro tracer stability in liver microsomes; format: in vitro ADME; conditions: mouse, rat and human liver microsomes
Experimental: as §1
Figure S3. Stability of [ 18F]1 in liver microsomes. (A) Stability of [ 18F]1 in mouse liver microsome; (B) Stability of [18F]1 in rat liver microsome; (C) Stability of [ 18F]1 in human […]
Figure S4. Stability of [ 18F]2 in liver microsomes. (A) Stability of [ 18F]2 in mouse liver microsome; (B) Stability of [18F]2 in rat liver microsome; (C) Stability of [ 18F]2 in human […]
Figure S5. TACs of [ 18F]1 in the whole rat brain under baseline and blocking (elacridar, elacridar and EMPA, or elacridar and LSN2424100; elacridar in 5 mg/kg, EMPA and LSN2424100 in 1 mg/kg) conditions; All data are mean ± SD, n ≥ 3. […]

[5] = Radiometabolic analysis in plasma and brain; format: in vivo, SD rats; conditions: rat brain homogenate, 30 min postinjection
Experimental: According to a previous report, SD rats were euthanized 30 min after the administration of [^18F]1 or [^18F]2. The brain was collected, homogenized with cold MeCN and PBS, and centrifuged (14,000g, 5 min) at 4 °C. The supernatant was analyzed by HPLC, and both tracers and radiometabolites were collected and measured by a γ counter. The same procedure was conducted for plasma.

OX2R [6] = target: OX2R; set-up: method as in earlier work; conditions: no binding method in paper; compounds previously reported; read-out: K i/OX2; cited from earlier work
OX2R [7] = target: T1, OX2R (Rattus norvegicus, UniProt P56719); assay: In vitro autoradiography on rat brain sections; format: binding; set-up: from tissue; host or cells: rat brain sections; conditions: blocking with EMPA, LSN2424100 or authentic reference compound, 10 μM, across regions
T1 sequence (P56719 1-460): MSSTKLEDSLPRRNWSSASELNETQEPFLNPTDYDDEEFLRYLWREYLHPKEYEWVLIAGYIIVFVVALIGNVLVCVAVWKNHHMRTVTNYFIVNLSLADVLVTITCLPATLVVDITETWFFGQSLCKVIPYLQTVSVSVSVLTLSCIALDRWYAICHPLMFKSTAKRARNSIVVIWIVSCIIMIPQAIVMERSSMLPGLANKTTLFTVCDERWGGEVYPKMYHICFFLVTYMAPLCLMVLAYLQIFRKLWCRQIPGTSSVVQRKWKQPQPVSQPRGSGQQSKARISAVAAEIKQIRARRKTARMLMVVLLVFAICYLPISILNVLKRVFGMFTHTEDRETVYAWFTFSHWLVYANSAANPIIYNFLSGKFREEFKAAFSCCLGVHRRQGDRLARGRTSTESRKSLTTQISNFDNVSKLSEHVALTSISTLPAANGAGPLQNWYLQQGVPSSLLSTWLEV
Experimental: According to a previous report, rat brain sections were incubated with Tris-HCl buffer (50 mM) and then with [^18F]1 or [^18F]2. In the blocking study, brain sections were incubated with the tracer in the presence of 1, 2, EMPA, or LSN2424100 (10 μM). Then the brain sections were washed with the cold buffer, dried, exposed to an imaging screen, and scanned with a Typhoon biomolecular imager.

OX2R [8] = target: T1, OX2R; assay: Dynamic PET imaging in the rat brain; format: in vivo, Sprague–Dawley rats; set-up: from tissue; host or cells: brain of living Sprague-Dawley rats; conditions: for tracer uptake reduction under blocking: EMPA or LSN2424100 1 mg/kg after elacridar pretreatment, all brain regions; for peak SUV in brain: baseline, 0.5 min postinjection; for increase in SUV0–60 min with elacridar: co-administration of elacridar 5 mg/kg (P-gp/BCRP inhibitor), across brain regions
Experimental: PET imaging was performed according to previous reports , with minor modifications. [^18F]1 or [^18F]2 (40 μCi) was administered via the tail vein of SD rats, and dynamic scans were performed with a G8 PET scanner (Sofie) for 60 min. In the blocking study, elacridar (5 mg/kg) and OX2R antagonist (EMPA or LSN2424100, 1 mg/kg) were injected at 20 and 10 min before the administration of the tracer, respectively.

Experimental log D = format: physicochemical
Source text: 1 Representative Pharmacological and Physicochemical Properties of 1 and 2 | column: compound 1; compound 2

sigma-2 = sigma-2 (Homo sapiens, UniProt Q5BJF2); assay: Off-target binding, sigma-2; conditions: read-out: K i sigma-2
Chain of sigma-2 (Q5BJF2 whole entry): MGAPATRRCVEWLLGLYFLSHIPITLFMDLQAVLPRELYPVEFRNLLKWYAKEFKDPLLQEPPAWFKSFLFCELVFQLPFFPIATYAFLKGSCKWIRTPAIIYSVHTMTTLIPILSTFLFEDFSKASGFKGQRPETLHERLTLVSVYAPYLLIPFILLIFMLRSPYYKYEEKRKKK
Experimental: (§2) Target selectivity over OX1R exceeded 600-fold for both compounds, satisfying a key prerequisite for selective OX2R imaging. […] CNS penetration was further predicted using Percepta, yielding log BB values of −0.14 and −0.36 for compounds 1 and 2, respectively, well above the empirical threshold for BBB permeability (log BB > −1). Additionally, off-target binding screening was conducted for compounds 1 and 2 toward 59 major CNS targets (Figures S1 and S2).
(§3) 1. Supporting Figures and Tables
(§4) Figure S1. Off-target pharmacological evaluation of compound 1. Initial screening of 59 major CNS targets at a concentration of 1 at 10 μM, including common GPCRs, enzymes, ion channels, and transporters. All data are mean ± SD (n ≥ 3).
(§5) Figure S2. Off-target pharmacological evaluation of compound 2. Initial screening of 59 major CNS targets at a concentration of 2 at 10 μM, including common GPCRs, enzymes, […]

NR2B receptors = NR2B receptors (Homo sapiens, UniProt Q05586+Q13224); assay: Off-target binding, NR2B; conditions: read-out: K i NR2B
Chain of NR2B receptors (Q13224 27-1484, other chains not shown): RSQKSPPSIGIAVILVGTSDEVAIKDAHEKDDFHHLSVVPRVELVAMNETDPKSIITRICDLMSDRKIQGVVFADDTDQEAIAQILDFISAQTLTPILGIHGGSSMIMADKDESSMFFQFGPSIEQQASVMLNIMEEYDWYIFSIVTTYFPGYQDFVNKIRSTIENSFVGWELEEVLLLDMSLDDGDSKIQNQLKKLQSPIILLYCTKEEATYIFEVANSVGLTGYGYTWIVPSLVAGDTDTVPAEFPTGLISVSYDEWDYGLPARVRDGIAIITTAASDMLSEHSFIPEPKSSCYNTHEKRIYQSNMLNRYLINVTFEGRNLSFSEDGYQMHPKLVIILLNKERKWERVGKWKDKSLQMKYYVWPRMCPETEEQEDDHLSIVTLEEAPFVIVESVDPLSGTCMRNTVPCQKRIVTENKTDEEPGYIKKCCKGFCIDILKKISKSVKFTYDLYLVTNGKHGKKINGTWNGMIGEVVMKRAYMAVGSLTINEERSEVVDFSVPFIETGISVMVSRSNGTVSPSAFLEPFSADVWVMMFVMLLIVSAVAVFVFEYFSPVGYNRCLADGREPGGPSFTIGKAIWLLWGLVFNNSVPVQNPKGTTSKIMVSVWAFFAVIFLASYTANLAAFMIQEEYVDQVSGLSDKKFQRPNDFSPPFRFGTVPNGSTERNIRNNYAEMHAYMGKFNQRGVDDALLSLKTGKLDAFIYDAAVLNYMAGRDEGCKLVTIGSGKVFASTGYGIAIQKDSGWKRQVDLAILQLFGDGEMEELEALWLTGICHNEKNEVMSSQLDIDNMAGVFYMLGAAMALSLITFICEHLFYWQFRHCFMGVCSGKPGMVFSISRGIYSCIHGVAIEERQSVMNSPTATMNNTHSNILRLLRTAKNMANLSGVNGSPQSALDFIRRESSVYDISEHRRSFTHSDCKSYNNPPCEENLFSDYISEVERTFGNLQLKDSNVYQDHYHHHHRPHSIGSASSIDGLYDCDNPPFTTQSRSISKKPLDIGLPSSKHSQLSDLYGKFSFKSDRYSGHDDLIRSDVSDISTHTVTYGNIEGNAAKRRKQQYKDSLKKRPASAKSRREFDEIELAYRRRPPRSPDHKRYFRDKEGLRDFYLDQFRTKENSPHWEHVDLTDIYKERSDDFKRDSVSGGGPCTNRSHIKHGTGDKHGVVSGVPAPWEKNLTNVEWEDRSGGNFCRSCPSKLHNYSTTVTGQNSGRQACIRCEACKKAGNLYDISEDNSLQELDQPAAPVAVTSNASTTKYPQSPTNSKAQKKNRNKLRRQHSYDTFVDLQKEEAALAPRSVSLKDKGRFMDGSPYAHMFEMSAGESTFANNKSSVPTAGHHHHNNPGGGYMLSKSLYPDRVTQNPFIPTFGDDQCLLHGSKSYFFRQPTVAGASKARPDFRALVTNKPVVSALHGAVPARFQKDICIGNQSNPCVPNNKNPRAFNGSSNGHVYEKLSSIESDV
Experimental: as §2, §3, §4, §5

[9] = system: 59 major CNS targets (GPCRs, enzymes, ion channels, transporters); assay: Off-target binding screening of 59 major CNS targets; conditions: 10 μM; significant = > 50%; except sigma 2 (and NR2B for 1)
Experimental: as §2, §3, §4, §5

OX1R = target: OX1R; set-up: method as in earlier work; conditions: no binding method in paper; compounds previously reported; read-out: K i/OX1; cited from earlier work
OX2R [10] = system: OX2R; set-up: method as in not given; conditions: introduction, literature statement; ref not given; cited from earlier work

| Compound | selectivity over OX1R (OX2R [1]) | radiometabolites in saline (stability) [2] | radiometabolites in serum (stability) [3] | radiometabolites in liver microsomes (stability) [4] | intact parent tracer in brain [5] | Ki (OX2R [6]) [nM] | autoradiography signal reduction under blocking (OX2R [7]) | tracer uptake reduction under blocking (OX2R [8]) | peak SUV in brain (OX2R [8]) | increase in SUV0–60 min with elacridar (OX2R [8]) [%] | selectivity (OX2R/OX1R) (OX2R [1]) | logD (Experimental log D) | Ki (sigma-2) [nM] | Ki (NR2B receptors) [nM] | off-target binding toward 59 major CNS targets [9] | Ki (OX1R) [nM] | selectivity for OX2R (OX2R [10]) [fold] |
| --- | --- | --- | --- | --- | --- | --- | --- | --- | --- | --- | --- | --- | --- | --- | --- | --- | --- |
| Cc1c(C#N)ccnc1O[C@@H]1CC[C@@H](C)N(C(=O)c2cc([18F])ccc2-c2nccs2)C1 [[^18F]1] | > 600 fold | No appreciable radiometabolites were detected | No appreciable radiometabolites were detected | No appreciable radiometabolites were detected | ca. 90% | 0.1 | 54–84% | 40–43% | 2.1 | > 100 |  |  |  |  |  |  |  |
| CC1CCC(Oc2cc(C#N)ccn2)CN1C(=O)c1cc([18F])ccc1-c1ncccn1 (stereo not drawn) [[^18F]2] | > 600 fold | No appreciable radiometabolites were detected | No appreciable radiometabolites were detected | No appreciable radiometabolites were detected | ca. 90% | 1 | 51–71% | 23–46% | 1.8 | > 100 |  |  |  |  |  |  |  |
| Cc1c(C#N)ccnc1O[C@@H]1CC[C@@H](C)N(C(=O)c2cc(F)ccc2-c2nccs2)C1 [compound 1, 2-(((3R,6R)-1-(5-Fluoro-2-(thiazol-2-yl)benzoyl)-6-methylpiperidin-3-yl)oxy)-3-methylisonicotinonitrile] | exceeded 600 fold |  |  |  |  | 0.1 |  |  |  |  | 890 | 3.43 | 2680 | 9480 | No off-target activity was observed; also recorded: No significant off-target | 89 |  |
| C[C@@H]1CC[C@@H](Oc2cc(C#N)ccn2)CN1C(=O)c1cc(F)ccc1-c1ncccn1 [compound 2, 2-(((3R,6R)-1-(5-Fluoro-2-(pyrimidin-2-yl)benzoyl)-6-methylpiperidin-3-yl)oxy)isonicotinonitrile] | exceeded 600 fold |  |  |  |  | 1 |  |  |  |  | 658 | 2.54 | 4730 |  | No off-target activity was observed; also recorded: No significant off-target | 658 |  |
| orexin B: endogenous neuropeptide ligand of the orexin receptors, selective for OX2R |  |  |  |  |  |  |  |  |  |  |  |  |  |  |  |  | > 10 |
